Legend:
[1] = system: tunicamycin-treated HeLa cells; assay: western blot of ER stress markers and phospho-Akt in tunicamycin-treated cells; assay type: cell-based; details: Tm 0.5 μg/ml, 5 hours, 0.1 mM ATP
Procedure: Figure 2 Prevention of cell death and ER stress by KUSs. (a) Photographs of HeLa cells, cultured with DMSO (DMSO) or KUSs (KUS94, KUS121, and KUS187, 20 μM each) for 41 hours in low glucose (0.2 g/l) medium. Scale bar, 100 μm. (b–e) WST (water-soluble tetrazolium salts) values reflecting relative live cell numbers are shown, as optical density (OD) at 450 nm. Error bars indicate SD. (b) WST values of HeLa cells, cultured in low glucose (0.2 g/l) with DMSO (control) or KUSs (50 μM for KUS121; 20 μM for KUS69, KUS94, and KUS187, n = 3) for 41 hours. (c) Cell viability, indicated by WST values of HeLa cells, cultured with tunicamycin (Tm) (0.2 μg/ml) for 41 hours with KUSs (20 μM each, n = 3). (d) WST values of HEK293 cells, cultured under serum-free conditions for 65 hours with DMSO (control) or KUSs (20 μM each, n = 3). *** P < 0.001, vs. DMSO control (Dunnett's test). (e) WST values of HeLa cells, cultured in low glucose (0.2 g/l) medium with different concentrations of KUS121 (5, 10, 20, and 50 μM, n = 3) for 41 hours. ** P = 0.008, *** P < 0.001, vs. DMSO control (Dunnett's test). […]
Figure 4 KUSs and ATP each prevented a decrease of ATP levels and ameliorated ER stress in tunicamycin-treated cells. […] Normally growing HeLa cells were also analyzed (Control). […] Then, ATP amounts from 1.5 × 10^5 cells were measured. * P < 0.05, ** P < 0.01. […]

[2] = system: HeLa cells; assay: immunocytochemistry of laminin γ1 aggregation in tunicamycin-treated cells; assay type: cell-based
Procedure: (§1) Figure 4 KUSs and ATP each prevented a decrease of ATP levels and ameliorated ER stress in tunicamycin-treated cells. (a) Immunocytochemical analyses of HeLa cells by an anti-laminin γ1 antibody. HeLa cells were treated with 0.5 μg/ml of tunicamycin (Tm) for 5 hours in the presence of KUSs (50 μM), ATP (0.1, 0.3, and 1 mM), methylpyruvate (MePyr) (3 and 10 mM), or vehicle alone (DMSO). Then, cells were fixed and subjected to immunocytochemical analyses. Normally growing HeLa cells were also analyzed (Control). Scale bar, 10 μm. (b) Measurements of the relative amounts of ATP per cell. HeLa cells were treated with tunicamycin (Tm, 0.5 μg/ml) for 24 hours in the presence of KUSs (50 μM) or ATP (0.1 and 1 mM), or vehicle alone (DMSO), and were harvested. Then, ATP amounts from 1.5 × 10^5 cells were measured. * P < 0.05, ** P < 0.01. Error bars indicate SD. (c) Western blot analyses on CHOP. HeLa cells were treated with 0.5 μg/ml of tunicamycin for 5 hours in the presence of KUSs (50 μM), ATP (0.1, 0.3, and 1 mM), methylpyruvate (MePyr) (3 and 10 mM), or vehicle alone (-). Then, cells were harvested and subjected to western blot analyses. Actin served as a loading control. Complete scans of the different blots are presented in Supplementary Fig. 9.

[3] = system: HeLa cells; assay: relative ATP amounts per cell in tunicamycin-treated cells; assay type: cell-based; details: Tm 0.5 μg/ml, 24 hours, ATP 0.1 and 1 mM
Procedure: as §1

[4] = system: cellular VCP functions; assay: immunoblot of ubiquitinated proteins, CHOP (ER stress) and LC3 (autophagy) in cultured cells; assay type: cell-based
Source text: (§2) Figure 1 Structures and characterization of KUSs, novel VCP modulators. (a) Structures and IC50 values of KUS11, KUS31, KUS69, KUS94, KUS121, and KUS187. […] (b) ATPase activity assays of recombinant human […], comparing KUSs and DBeQ. (c) Immunoblot analysis of ubiquitinated proteins, an ER stress marker (CHOP), and an autophagy indicator (LC3), comparing KUSs and DBeQ. As a control, MG132, a proteasome inhibitor, was used for the analysis. Actin served as a loading control. Complete scans of the different blots are presented in Supplementary Fig. 7. (d) Comparison of KUSs and DBeQ for cell death-inducing activities. HeLa cells were treated with 50 μM DBeQ or KUSs for 24 hours. […]

[5] = system: HeLa cells; assay: cell death-inducing activity; assay type: cell-based; details: 50 μM, 24 hours
Source text: as §2

[6] = system: VCP; parameters: method as in PMID 21383145; details: reported value; read-out: in vitro IC50 (half maximal inhibitory concentration) for VCP; cited from earlier work

Structure (SMILES)	induction of ER stress (CHOP induction) [1]	aggregation of laminin γ1 ([2]; HeLa, Tm 0.5 μg/ml, 5 hours, 0.1 mM ATP)	aggregation of laminin γ1 ([2]; HeLa, Tm 0.5 μg/ml, 5 hours, 1 mM ATP)	aggregation of laminin γ1 ([2]; tunicamycin-treated HeLa cells, ATP at 0.3 to 1 mM)	decrease of ATP levels in tunicamycin-treated cells [3]	induction of accumulation of ubiquitinated proteins, ER stress (CHOP), autophagy (LC3) [4]	induction of cell death [5]	IC50 [6]
Nc1ncnc2c1ncn2[C@@H]1O[C@H](COP(=O)(O)OP(=O)(O)OP(=O)(O)O)[C@@H](O)[C@H]1O [ATP]	dampen the induction of ER stress	ineffective in preventing the aggregation of laminin γ1	clearly prevented the aggregation of laminin γ1	prevented the aggregation of laminin γ1	prevented decreases of ATP levels			
c1ccc(CNc2nc(NCc3ccccc3)c3ccccc3n2)cc1 [DBeQ, reference compound]						induced accumulation of ubiquitinated proteins, ER stress, autophagy	eventually cell death	1000 nM

From publication PMC4122966, “Novel VCP modulators mitigate major pathologies of rd10, a mouse model of retinitis pigmentosa” (Scientific Reports, 2014)
